Results reported in ChEMBL document CHEMBL1150646, “Ravenic acid, a new tetramic acid isolated from a cultured microfungus, Penicillium sp” (J Nat Prod, 2002).
Active and inactive are the calls of the source. The calls are words filed in the database; no cut-off is given here.

Tested on: Staphylococcus aureus
Experiment: Antibacterial activity against methicillin-resistant Staphylococcus aureus at 25 ug/mL
Format: functional, organism-based

SMILES: C/C=C/C=C/C=C(C)/C=C/C(O)=C1\C(=O)CNC1=O
- inhibition: Active
